Key:
[1] = (§1) RORgamma Gal4 Reporter Gene Assay (REN): Cells were incubated for additional 16 h before renilla (REN) luciferase activities were measured sequentially in the same cell extract using a Dual-Light-Luciferase-Assay system (Dyer et al., Anal. Biochem. 2000, 282:158). All experiments were done at least in triplicates.
[2] = as §1, with “(FF):” for “(REN):”, “firefly (FF)” for “renilla (REN)”

| Compound | IC50 [1] | IC50 [2] |
| --- | --- | --- |
| CC(C)(C)NS(=O)(=O)c1ccc(-c2oc(C(=O)NC3CCOCC3)nc2CC2CCCCC2)c2ccccc12 | 12.6 nM | 15.8 nM |
| C[C@H](NS(=O)(=O)c1ccc(-c2sc(C(=O)N3CC4(C3)CS(=O)(=O)C4)nc2CC2CC2)c2ccccc12)C(F)(F)F | 6.31 nM | 6.31 nM |
| CC(C)(O)CNC(=O)c1nc(CC2CCCCC2)c(-c2ccc(S(N)(=O)=O)c(Cl)c2Cl)s1 | < 20000 nM | < 20000 nM |
| CC(C)(C)NS(=O)(=O)c1ccc(-c2sc(C(=O)NC3CCC3)[n+]([O-])c2CC2CCCCC2)c2ccccc12 | 31.6 nM | 31.6 nM |
| CC1CCN(C(=O)c2nc(C(=O)N3CC4(CCS(=O)(=O)CC4)C3)oc2-c2ccc(S(=O)(=O)NC(C)(C)C)c3ccccc23)CC1 | 2510 nM |  |
| CC(C)(C)c1cc(-c2sc(C(=O)NC3CC(OC=O)C3)nc2CC2CCCCC2)nc(C(C)(C)C)n1 (configuration not stated) | 126 nM | 126 nM |
| CC1CCN(C(=O)c2nc(C(=O)NCC(C)(C)O)sc2-c2ccc(S(=O)(=O)NCC(C)(C)O)c3ccccc23)CC1 | 1580 nM |  |
| CC(C)(C)NS(=O)(=O)c1ccc(-c2sc(C(=O)NC3CCC3)nc2CC2CCCCC2)c(OC(F)F)c1Cl | 5.01 nM | 10 nM |
| CC(C)(C)NS(=O)(=O)c1ccc(-c2sc(C(=O)NC3CCC3)nc2CC2CCCCC2)c(OC(F)(F)F)c1 | 6.31 nM | 10 nM |
| CC(C)(C)c1cc(-c2sc(C(=O)NC3CCC3)[n+]([O-])c2CC2CCCCC2)cc(C2(C)CC2)c1 | 25.1 nM | 31.6 nM |
| O=CO[C@H]1C[C@H](NC(=O)c2nc(CC3CCCCC3)c(-c3ccc(OC(F)(F)F)c4ccccc34)s2)C1 | 126 nM | 126 nM |
| CC1CCN(C(=O)c2nc(C(=O)NCC(C)(C)O)sc2-c2ccc(S(=O)(=O)NCC(F)(F)F)c3ccccc23)CC1 | 39.8 nM |  |
| CC(C)(C)NS(=O)(=O)c1ccc(-c2sc(C(=O)NC3CCOCC3)nc2CC2CCCCC2)cc1C(F)(F)F | 5.01 nM | 10 nM |
| CC(C)(C)c1cc(-c2sc(C(=O)NC3CC(OC=O)C3)nc2CC2CCCCC2)nc(C2(C)CC2)n1 (configuration not stated) | 200 nM | 158 nM |
| CC(C)(C)c1cc(-c2sc(S(=O)(=O)NC(=O)OCc3ccccc3)nc2CC2CCCCC2)cc(C2(C)CC2)c1 | < 20000 nM | < 20000 nM |
| O=CO[C@H]1C[C@H](NC(=O)c2nc(CC3CCCCC3)c(-c3ccc(OCC(F)(F)F)c4ccccc34)s2)C1 | 631 nM | 316 nM |
| C[C@H](NC(=O)c1cc(-c2sc(C(=O)NCC(C)(C)c3noc(=O)[nH]3)nc2CC2CCCCC2)cc(C2(C)CC2)c1)C(F)(F)F | 5.01 nM | 5.01 nM |
| CC(C)(O)CNC(=O)c1nc(CC2CCC2)c(-c2ccc(S(=O)(=O)NC(C)(C)C)c(Cl)c2OC(F)F)s1 | 39.8 nM | 31.6 nM |
| CC(C)(C)NS(=O)(=O)c1cnc(-c2sc(C(=O)N[C@H]3C[C@H](C(=O)O)C3)nc2CC2CCCCC2)nc1C(C)(C)C | 398 nM | 200 nM |
| COc1ccc(-c2sc(C(=O)N[C@H]3C[C@H](OC=O)C3)nc2CC2CCCCC2)c2ccccc12 | 251 nM | 251 nM |
| O=C(NC1CCS(=O)(=O)CC1)c1nc(CC2CCCCC2)c(-c2ccc(C3(O)CCC3)c3ccccc23)s1 | 631 nM | 501 nM |
| CC(C)(O)CN1CCN(C(=O)c2nc(CC3CCCCC3)c(-c3ccc(S(=O)(=O)NC(C)(C)C)c4ccccc34)s2)CC1 | 126 nM | 158 nM |
| CC(C)(C)NS(=O)(=O)c1ccc(-c2sc(C(=O)N[C@H]3C[C@H](C(=O)O)C3)nc2Cc2ccccc2)c2ccccc12 |  | 26.5 nM |
| CC(C)(C)NS(=O)(=O)c1ccc(-c2oc(C(=O)N3CC4(CCS(=O)(=O)CC4)C3)nc2CC2CCCCC2)c2ccccc12 |  | 1260 nM |
| CC(C)(C)NS(=O)(=O)c1ccc(-c2sc(C(=O)NC3CCOCC3)nc2CC2CCCCC2)cc1C(C)(C)C | 12.6 nM | 15.8 nM |
| CC(=O)NS(=O)(=O)c1nc(-c2cc(C(C)(C)C)cc(C(C)(C)C)c2)c(CC2CCCCC2)s1 | < 20000 nM | < 20000 nM |

From ChEMBL document CHEMBL5727000, “Carboxamide or sulfonamide substituted thiazoles and related derivatives as modulators for the orphan nuclear receptor ROR[γ]” (2019)
